Reference: patent publication US20130205449A1, “Methods and Compositions for Production of Triploid Sterile Plants” (University of Connecticut, priority 2011, published 2013)

Assays:
Format in all cases: cell-based, Euonymus alatus
[1] = system: E. alatus ‘Compactus’ immature endosperm explants; test: Callus induction from immature endosperm explants; conditions: in combination with the same concentration of BA
Protocol: (§1) Except for rooting, all the media described herein were composed of MS salts (Murashige and Skoog, 1962) with 100 mg/L myo-inositol, 2.0 mg/L glycine, 1.0 mg/L thiamine-HCl, 0.5 mg/L nicotinic acid, 0.5 mg/L pyridoxine-HCl, 0.3 g/L casein hydrolysate, 0.5 g/L 2-(Nmorpholino) ethanesulfonic acid, 30.0 g/L sucrose, and 7.0 g/L agar. The pH of all culture media was adjusted to 5.8 with KOH or HCl before addition of agar. All media were autoclaved at 121° C. for 20 minutes, and all the cultures, except for those specifically mentioned, were maintained at 23±2° C. under 35 to 45 μmol/m^2s light provided by white cool fluorescent tube lamps over a 16-hour photoperiod.
Endosperm tissues with seedcoats and embryos completely removed were used for triploid callus induction (FIG. 1A). […]
Seed coats and embryos were removed, and the immature endosperm explants were cultured in disposable petri dishes (90×20 mm) containing MS medium supplemented with different combinations of four concentrations of BA (2.22, 4.44, 8.88, and 17.76 μM), three concentrations of NAA (2.69, 5.38, and 10.76 μM), and two concentrations of 2,4-dichlorophenoxy-acetic acid (2,4-D) (2.26 and 9.04 μM) to induce callus formation. […] Callus formation data were recorded at Week 12 of culture, and mean number of immature endosperm explants forming calli was calculated based on three replicates for each treatment. […]

[2] = system: shoots from embryo or endosperm-derived calli; test: Rooting of regenerated shoots
Protocol: After shoot buds were formed from embryo or endosperm-derived calli, they were transferred together with their callus explants into Magenta boxes containing the MS medium supplemented with 4.44 μM BA and 0.49 μM IBA for further growth. When the shoots grew to 1 to 2 cm in height, they were excised from callus tissues and cultured on root induction Medium I, which included half strength WPM (Lloyd and McCown, 1980, Proc. Intl. Plant Prop. Soc., 30:421-427) with 2% sucrose, 0.04% ammonium nitrate, 0.4% agar, 0.14% phytagel (a blended agar and phytagel medium was used to produce a totally transparent medium so that initiation and growth of roots could be easily monitored), and 4.9 μM IBA (Clements, 2007, In vitro induction of polyploidy, rooting, and overcoming the dormancy limitations of Euonymus alatus ‘Compactus,” MS Thesis, Univ. of. Conn., p. 536)). Two weeks later, the shoots were transferred onto rooting Medium II (Clements, 2007), which was IBA-free rooting Medium I with 2 g/L activated charcoal (Kang et al., 2009). The pH of the rooting media was adjusted to 5.2 with KOH or HCl before the addition of gelling agents. The root cultures were transferred to fresh medium every four weeks. […]

[3] = system: immature endosperm-derived calli of E. alatus ‘Compactus’; test: Shoot bud induction from immature endosperm-derived calli; conditions: zeatin at 9.13 or 18.26 μM, kinetin at 9.30 or 18.60 μM, in the presence of 0.49 μM IBA
Protocol: as §1
After 12 weeks of culture, compact, greenish calli formed on six callus induction media supplemented with 2.22, 4.44, or 8.88 μM BA and 2.69 or 5.38 μM NAA were cut into pieces (approximately 0.5 cm×0.5 cm in size) and transferred to the petri dishes containing shoot induction media supplemented with 4.44 or 13.32 μM BA, 9.13 or 18.26 μM zeatin, and 9.30 or 18.60 μM kinetin plus 0.49 μM IBA or 0.57 μM indole-3-acetic acid (IAA). Callus segments also were cultured on hormone free MS medium as a control. […] Bud (shoot bud) formation was recorded at Week 8 of culture. Bud induction rates were calculated by dividing the number of calli forming shoot buds by the number of calli cultured. […]

O=C(O)COc1ccc(Cl)cc1Cl [2,4-D, 2,4-dichlorophenoxy-acetic acid]
Effectiveness in callus induction compared with NAA [1]: less effective in callus induction than NAA

O=C(O)CCCc1c[nH]c2ccccc12 [IBA, indole-3-butyric acid]
Shoots developed into healthy plants with well-developed roots ([2]; Medium I with 4.9 μM IBA two weeks, then IBA-free Medium II with 2 g/L activated charcoal, within 10 weeks of culture): 85% | Shoots rooted ([2]; WPM with 4.9 μM IBA for two weeks, then hormone-free WPM with 2.0 g/L activated charcoal for four weeks): Eighty five percent

C/C(=C\CNc1ncnc2[nH]cnc12)CO [zeatin]
Bud formation [3]: failed to induce bud formation

c1coc(CNc2ncnc3[nH]cnc23)c1 [kinetin]
Bud formation [3]: failed to induce bud formation
